Measured values from patent US12275731B2, “Azaindole inhibitors of wild-type and mutant forms of LRRK2” (DANA-FARBER CANCER INSTITUTE, INC., priority 2018, dated 2025).

What was measured:
Experiment in all cases: KinomeScan profiling
Type in all cases: binding
[1] = target: T1, PLK4 (Homo sapiens, UniProt O00444); details: PLK4, 1 μM; read-out: % control
T1 sequence (O00444 1-970): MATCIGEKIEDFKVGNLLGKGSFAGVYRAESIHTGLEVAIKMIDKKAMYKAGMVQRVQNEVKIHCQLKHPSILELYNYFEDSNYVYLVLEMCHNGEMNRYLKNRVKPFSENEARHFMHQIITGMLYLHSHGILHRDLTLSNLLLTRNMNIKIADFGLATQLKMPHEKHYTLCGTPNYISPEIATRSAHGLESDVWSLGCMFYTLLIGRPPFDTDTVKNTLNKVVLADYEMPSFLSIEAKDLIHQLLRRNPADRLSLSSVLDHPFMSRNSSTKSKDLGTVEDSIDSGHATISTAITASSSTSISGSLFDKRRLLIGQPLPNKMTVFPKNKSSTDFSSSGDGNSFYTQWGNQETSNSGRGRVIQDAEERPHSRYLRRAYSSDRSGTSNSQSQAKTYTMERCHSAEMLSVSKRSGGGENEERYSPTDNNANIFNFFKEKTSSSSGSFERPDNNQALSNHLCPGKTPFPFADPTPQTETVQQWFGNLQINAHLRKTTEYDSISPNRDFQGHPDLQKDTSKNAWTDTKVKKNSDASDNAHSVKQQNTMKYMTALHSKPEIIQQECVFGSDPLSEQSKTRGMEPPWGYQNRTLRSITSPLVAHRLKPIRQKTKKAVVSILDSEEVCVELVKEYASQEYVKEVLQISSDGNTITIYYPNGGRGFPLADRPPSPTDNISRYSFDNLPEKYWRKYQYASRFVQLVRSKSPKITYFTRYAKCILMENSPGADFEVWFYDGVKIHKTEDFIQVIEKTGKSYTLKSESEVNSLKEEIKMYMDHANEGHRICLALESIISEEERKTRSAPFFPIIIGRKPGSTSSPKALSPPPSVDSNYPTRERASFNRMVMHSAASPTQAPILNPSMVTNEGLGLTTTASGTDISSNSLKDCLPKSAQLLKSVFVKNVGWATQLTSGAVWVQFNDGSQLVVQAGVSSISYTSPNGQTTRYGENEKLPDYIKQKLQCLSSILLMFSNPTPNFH
Procedure, shortened: (§1)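 The panel spans 468 kinases, and each inventive compound was applied at 1 μM from DMSO. Lower % control means stronger binding; the activity cut-off is set at less than 35%.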

[2] = target: T2, PIK3CA(H1047L) (Homo sapiens, UniProt P42336, H1047L); details: read-out: % control
T2 construct: purchased KinomeScan® (panel service)
T2 sequence (P42336 whole entry H1047L): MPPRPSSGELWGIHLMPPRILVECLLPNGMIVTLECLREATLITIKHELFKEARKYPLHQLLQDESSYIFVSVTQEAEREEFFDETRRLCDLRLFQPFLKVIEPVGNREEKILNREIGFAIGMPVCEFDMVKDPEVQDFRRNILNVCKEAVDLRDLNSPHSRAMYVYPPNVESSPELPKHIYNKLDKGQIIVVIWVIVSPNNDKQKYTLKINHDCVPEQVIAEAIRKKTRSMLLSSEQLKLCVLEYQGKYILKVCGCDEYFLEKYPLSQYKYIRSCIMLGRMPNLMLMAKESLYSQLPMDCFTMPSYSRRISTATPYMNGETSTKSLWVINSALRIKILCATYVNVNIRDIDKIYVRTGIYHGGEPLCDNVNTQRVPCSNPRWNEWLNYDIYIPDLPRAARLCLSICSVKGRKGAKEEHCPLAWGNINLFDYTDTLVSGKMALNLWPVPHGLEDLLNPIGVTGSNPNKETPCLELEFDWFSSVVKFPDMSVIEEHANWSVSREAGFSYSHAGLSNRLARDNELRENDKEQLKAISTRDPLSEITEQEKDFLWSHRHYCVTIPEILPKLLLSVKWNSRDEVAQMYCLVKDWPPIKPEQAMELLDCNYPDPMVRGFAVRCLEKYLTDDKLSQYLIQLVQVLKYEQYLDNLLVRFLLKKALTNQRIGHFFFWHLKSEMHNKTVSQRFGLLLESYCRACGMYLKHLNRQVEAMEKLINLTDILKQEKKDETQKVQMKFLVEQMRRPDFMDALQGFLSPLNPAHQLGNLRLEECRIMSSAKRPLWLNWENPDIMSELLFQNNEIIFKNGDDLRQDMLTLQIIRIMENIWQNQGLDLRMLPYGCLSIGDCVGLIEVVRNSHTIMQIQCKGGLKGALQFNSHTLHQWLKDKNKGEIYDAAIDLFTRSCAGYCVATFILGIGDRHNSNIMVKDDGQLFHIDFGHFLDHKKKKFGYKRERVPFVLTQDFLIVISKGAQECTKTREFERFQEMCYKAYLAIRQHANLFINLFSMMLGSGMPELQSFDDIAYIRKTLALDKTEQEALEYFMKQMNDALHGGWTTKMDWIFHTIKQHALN
Procedure, shortened: as §1

[3] = target: T3, p38-delta (Homo sapiens, UniProt O15264); details: read-out: % control
T3 sequence (O15264 1-365): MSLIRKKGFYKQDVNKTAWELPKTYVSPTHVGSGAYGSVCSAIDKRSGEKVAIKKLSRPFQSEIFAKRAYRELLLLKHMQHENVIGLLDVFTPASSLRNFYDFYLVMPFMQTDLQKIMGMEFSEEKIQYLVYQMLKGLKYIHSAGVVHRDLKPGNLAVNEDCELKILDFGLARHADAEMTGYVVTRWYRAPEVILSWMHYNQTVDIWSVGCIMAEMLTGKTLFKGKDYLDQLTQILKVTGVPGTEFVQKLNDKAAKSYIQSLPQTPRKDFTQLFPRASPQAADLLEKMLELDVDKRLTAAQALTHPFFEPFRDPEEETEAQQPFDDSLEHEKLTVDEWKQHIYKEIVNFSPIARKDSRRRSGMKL
Procedure, shortened: as §1

[4] = target: T4, STK36 (Homo sapiens, UniProt Q9NRP7); details: STK36, 1 μM; read-out: % control
T4 construct: purchased KinomeScan® (panel service)
T4 sequence (Q9NRP7 1-1315): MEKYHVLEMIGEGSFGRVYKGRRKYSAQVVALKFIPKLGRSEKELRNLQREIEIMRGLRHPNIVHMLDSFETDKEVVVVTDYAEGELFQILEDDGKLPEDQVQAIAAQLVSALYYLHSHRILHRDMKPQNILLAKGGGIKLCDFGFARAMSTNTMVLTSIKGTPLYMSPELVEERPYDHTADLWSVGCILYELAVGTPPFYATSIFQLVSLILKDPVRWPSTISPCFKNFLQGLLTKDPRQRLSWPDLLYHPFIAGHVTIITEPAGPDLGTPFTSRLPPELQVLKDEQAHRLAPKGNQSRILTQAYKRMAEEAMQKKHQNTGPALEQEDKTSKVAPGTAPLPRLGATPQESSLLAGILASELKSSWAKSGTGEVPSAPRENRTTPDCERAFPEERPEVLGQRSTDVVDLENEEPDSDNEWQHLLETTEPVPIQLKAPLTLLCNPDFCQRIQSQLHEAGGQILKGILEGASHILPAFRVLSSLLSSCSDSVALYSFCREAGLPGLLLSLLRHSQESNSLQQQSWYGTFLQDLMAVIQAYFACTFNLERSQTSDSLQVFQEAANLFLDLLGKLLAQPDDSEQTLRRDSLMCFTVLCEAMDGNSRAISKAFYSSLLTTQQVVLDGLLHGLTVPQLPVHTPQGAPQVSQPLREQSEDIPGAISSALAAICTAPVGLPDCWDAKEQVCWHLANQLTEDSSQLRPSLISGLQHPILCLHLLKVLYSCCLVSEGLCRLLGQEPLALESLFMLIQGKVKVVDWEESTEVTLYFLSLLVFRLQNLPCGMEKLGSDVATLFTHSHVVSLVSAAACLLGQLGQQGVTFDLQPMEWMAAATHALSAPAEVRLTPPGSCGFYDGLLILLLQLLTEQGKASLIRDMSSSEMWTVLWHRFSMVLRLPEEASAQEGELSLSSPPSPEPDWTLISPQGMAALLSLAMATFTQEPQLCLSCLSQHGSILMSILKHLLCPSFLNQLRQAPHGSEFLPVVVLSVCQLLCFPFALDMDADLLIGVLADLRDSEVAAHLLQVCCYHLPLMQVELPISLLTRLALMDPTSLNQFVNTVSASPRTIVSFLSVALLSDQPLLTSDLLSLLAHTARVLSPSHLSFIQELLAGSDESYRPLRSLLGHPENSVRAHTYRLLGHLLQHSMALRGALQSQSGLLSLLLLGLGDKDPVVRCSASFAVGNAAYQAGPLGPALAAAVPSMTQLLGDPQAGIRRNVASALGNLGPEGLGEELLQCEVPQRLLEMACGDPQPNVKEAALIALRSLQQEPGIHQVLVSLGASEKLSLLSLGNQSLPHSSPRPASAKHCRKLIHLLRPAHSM
Procedure, shortened: as §1

Structure (SMILES) | remaining binding at 1 µM [1] [%] | remaining binding at 1 µM [2] [%] | remaining binding at 1 µM [3] [%] | remaining binding at 1 µM [4] [%]
O=C(c1ccc(-c2cnc3[nH]cc(Cl)c3c2NC2CCCC2)cc1)N1CCC(N2CCOCC2)CC1 [Compound 101, (4-(3-chloro-4-(cyclopentylamino)-1H-pyrrolo[2,3-b]pyridin-5-yl)phenyl)(4-morpholinopiperidin-1-yl)methanone] | 78 | 100 | 94 | 96
CNc1c(-c2cnn([C@H]3CCN(C(C)=O)C[C@@H]3F)c2)cnc2[nH]cc(Cl)c12 [Compound 77, 1-((3S,4S)-4-(4-(3-chloro-4-(methylamino)-1H-pyrrolo[2,3-b]pyridin-5-yl)-1H-pyrazol-1-yl)-3-fluoropiperidin-1-yl)ethan-1-one] | 27 | 97 | 96 | 100
CNc1c(-c2ccc(C(=O)N3CCC(N4CCOCC4)CC3)cc2)cnc2[nH]cc(Cl)c12 [Compound 96, (4-(3-chloro-4-(methylamino)-1H-pyrrolo[2,3-b]pyridin-5-yl)phenyl)(4-morpholinopiperidin-1-yl)methanone] | 27 | 92 | 99 | 99
